Reference: patent US20210046190A1, “ANTICANCER AGENT” (OSAKA UNIVERSITY, priority 2018, published 2021)
Values after ≈ are worked out from the molar mass of the structure shown.

Key:
HepG2 cells [1] = assay: Apoptosis assay, Annexin V-FITC/PI flow cytometry; assay type: cell-based; conditions: 100 μg/ml
Protocol: The cell apoptosis assay was performed by flow cytometry using an Annexin V-FITC Apoptosis Detection Kit (BioVision, Mountain View, Calif.) according to the manufacturer's protocol. For flow cytometric analysis, HepG2 cells (5×10^5 cells) were trypsinized, gently washed twice with PBS, and subsequently resuspended in 500 μL of 1× binding buffer. The cells were stained by adding 5 μL of Annexin V-FITC and propidium iodide (PI) in the dark at room temperature for 5 minutes. The green fluorescence of FITC-bound Annexin V and the red fluorescence of DNA-bound PI were measured using a Canto II flow cytometer (BD Biosciences).

HuH7 = HuH7 hepatocellular carcinoma cell line; cited from earlier work
PLC = PLC hepatocellular carcinoma cell line; cited from earlier work
HepG2 cells [2] = assay: Intracellular reactive oxygen species (ROS) levels, CellROX flow cytometry; assay type: cell-based; conditions: 100 μg/ml, 6 hours
Protocol: CellROX Deep Red Reagent was purchased from Invitrogen (Carlsbad, Calif.), and intracellular ROS levels were measured. […] The treated cells were cultured at 37° C. for 6 hours, and the cell concentration of the sample was adjusted to 5×10^3 cells/ml. Then, the cells were cultured with a CellROX Deep Red Reagent (1 mM, Invitrogen) at 37° C. for 30 minutes while protected from light. Furthermore, the cells were stained with SYTOX Blue Dead Cell Stain (5 mM, Invitrogen), and counted by flow cytometry after dead cell exclusion. Flow cytometric analysis was performed using a Canto II flow cytometer (BD Biosciences).

[3] = 30 mg once a day in oral administration, acute leukemia; cited from earlier work

## CC(C)C[C@H](NC(=O)[C@@H](O)[C@H](N)Cc1ccccc1)C(=O)O [ubenimex, (2S)-2-[(2S,3R)-3-amino-2-hydroxy-4-phenylbutanoylamino]-4-methylpentanoic acid]
HepG2 cells [1]
  apoptosis: has an effect of inducing apoptosis
HuH7
  IC30: 394.8 µg/mL (≈ 1280 µM)
PLC
  IC30: 498.8 µg/mL (≈ 1620 µM)
HepG2 cells [2]
  intracellular ROS levels: has an effect of enhancing intracellular ROS levels
[3]
  maximum blood concentration: 2.21 µg/mL
